Laboratory results from ChEMBL document CHEMBL1201862, “PubChem BioAssay data set” (2004).
Active and inactive are the calls of the source.

Experiments:
[1] = inhibitors of PGC1a acetylation in cells, dose response, cell-based, cherry-picked samples (AID 720514); format: functional;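 also: potency may reflect raised or lowered acetylation signal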
[2] = target: T1, Protein Tat (Human immunodeficiency virus type 1 group M subtype B (isolate HXB2)(HIV-1), UniProt P04608); format: functional;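 also: tat binding to TAR RNA read out by fluorescence polarization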
T1 sequence (P04608 whole entry): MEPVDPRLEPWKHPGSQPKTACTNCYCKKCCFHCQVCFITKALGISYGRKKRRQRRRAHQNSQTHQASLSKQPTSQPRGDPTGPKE

[3] = HEK293T cytotoxicity, dose response, cytotoxicity control for miR-122 modulator project, cell-based, inhibitor set, cherry-pick, set 2 (AID 720697); format: functional
[4] = miR-122 activators in hepatoma reporter cells, dose response, cell-based, Huh7 psiCHECK-miR122, Renilla luciferase, cherry-picked (AID 651956); format: functional;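 also: huh7 hepatoma cells stably carrying a psiCHECK-2 miR-122 sensor plasmid; renilla luciferase signal reporting endogenous miR-122 activity after 48 h compound exposure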
[5] = Shn3 3'UTR reporter inhibitors, dose response, cell-based, Clone20 osteoblasts, firefly luciferase, cherry-picked (AID 624132); format: functional;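 also: firefly luciferase luminescence from reporter carrying the Shn3 3'UTR in osteoblasts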
[6] = MC4R antagonists, dose response, counter-screen for LGR2 antagonist project, cell-based, plate reader, cherry pick (AID 743444); format: functional;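 also: transfected HEK 293 cells stimulated with alpha-MSH peptide; potency of inhibitors of the alpha-MSH evoked signal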
[7] = A549 cell cytotoxicity, dose response, cytotoxicity control, plate reader, cherry-pick, antagonist series (AID 743412); format: functional, cell-based
[8] = LGR2 antagonists, dose response, cell-based, HEK293, CRE-luciferase reporter, cherry pick, set 2 (AID 743343); format: functional;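 also: transfected cells were stimulated with diluted bursicon conditioned medium after compound addition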
[9] = HeLa cell cytotoxicity, dose response, cytotoxicity control for MgcRacGAP inhibitor project (AID 624300); format: functional
[10] = HepG2 cell cytotoxicity, dose response, cytotoxicity control, plate reader, cherry-pick, antagonist series (AID 743416); format: functional, cell-based
[11] = HEK293 cell cytotoxicity, dose response, cytotoxicity control, plate reader, cherry-picked samples (AID 743446); format: functional, cell-based
[12] = target: T2, Rac GTPase-activating protein 1 (Homo sapiens, UniProt Q9H0H5); assay: MgcRacGAP GTPase-activating activity inhibitors, confirmation, biochemical, ADP Hunter fluorescence, primary and confirmatory (AID 624330); format: functional
T2 sequence (Q9H0H5 whole entry): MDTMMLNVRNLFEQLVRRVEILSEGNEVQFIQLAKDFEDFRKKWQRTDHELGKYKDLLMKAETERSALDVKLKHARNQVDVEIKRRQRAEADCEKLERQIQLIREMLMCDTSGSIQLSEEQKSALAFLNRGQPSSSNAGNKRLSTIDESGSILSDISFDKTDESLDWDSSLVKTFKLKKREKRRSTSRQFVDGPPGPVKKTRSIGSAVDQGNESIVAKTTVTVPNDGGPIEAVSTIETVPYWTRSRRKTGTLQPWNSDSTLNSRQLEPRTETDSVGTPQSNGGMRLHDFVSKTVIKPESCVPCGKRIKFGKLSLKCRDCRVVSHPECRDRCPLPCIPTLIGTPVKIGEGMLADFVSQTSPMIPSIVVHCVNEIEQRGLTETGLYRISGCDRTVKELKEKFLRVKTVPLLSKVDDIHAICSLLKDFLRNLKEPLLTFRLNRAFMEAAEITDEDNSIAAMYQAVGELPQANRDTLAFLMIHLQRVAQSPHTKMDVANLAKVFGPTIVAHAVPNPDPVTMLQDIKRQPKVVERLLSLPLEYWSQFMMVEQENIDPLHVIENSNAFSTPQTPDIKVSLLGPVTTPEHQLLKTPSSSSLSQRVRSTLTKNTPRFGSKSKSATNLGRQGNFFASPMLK

[13] = control 3'UTR Renilla luciferase suppression, dose response, counter-screen for Shn3 inhibitor project, cell-based, Clone20-Shn3RL, cherry-picked (AID 624133); format: functional
[14] = target: Paired box protein Pax-8 (Homo sapiens, UniProt Q06710); assay: inhibitors of PAX8-driven TPO luciferase reporter, dose response, RMG-I cells, cherry-pick (AID 687027); format: functional, cell-based;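 also: luciferase reporter driven by Pax8 target thyroperoxidase promoter measured by SteadyGlo luminescence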
[15] = Fluorescence-based cell-based high throughput dose response assay for inhibitors of the interaction of nucleotide-binding oligomerization domain containing 2 (NOD2) and the receptor-interacting serine-threonine kinase 2 (RIPK2).; format: functional, Homo sapiens; settings: Homo sapiens
[16] = HepG2 cell cytotoxicity, dose response, cytotoxicity control for Shn3 inhibitor project, CellTiter-Glo, cherry-picked (AID 624134); format: functional, cell-based

Chain of Paired box protein Pax-8 (Q06710 whole entry, the tested form may be a part): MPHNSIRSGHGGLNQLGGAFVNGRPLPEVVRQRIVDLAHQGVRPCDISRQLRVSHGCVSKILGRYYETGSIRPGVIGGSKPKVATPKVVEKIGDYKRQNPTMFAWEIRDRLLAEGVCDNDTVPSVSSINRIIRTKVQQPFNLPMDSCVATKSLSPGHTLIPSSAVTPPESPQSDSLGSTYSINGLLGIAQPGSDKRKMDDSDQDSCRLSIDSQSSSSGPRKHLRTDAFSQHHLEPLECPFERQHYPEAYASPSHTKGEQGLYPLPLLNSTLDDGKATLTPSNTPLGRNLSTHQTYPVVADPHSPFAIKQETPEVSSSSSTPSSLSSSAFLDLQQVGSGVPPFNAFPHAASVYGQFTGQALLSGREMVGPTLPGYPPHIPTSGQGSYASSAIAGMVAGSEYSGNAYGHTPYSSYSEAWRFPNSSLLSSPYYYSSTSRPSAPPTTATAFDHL

Question: For `O=C(CSc1nc2cc(Cl)ccc2s1)NCC1CCCO1` (centres undefined), which AC50 [1] is on record?
Answer: 30500 nM (active)

Question: With `[O-][n+]1c2c([n+]([O-])c3cc(Br)ccc31)CCC2` as the molecule, how does the IC50 [2] read?
Answer: 8440 nM (inconclusive)

Question: Which IC50 [2] does the source give for `CCOc1ccc2[nH]c(=O)c(CN(Cc3ccco3)C(=O)c3ccc(Br)cc3)cc2c1` here?
Answer: > 100000 nM (active)

Question: With `C[C@@H]1CCCCO[C@H](CN(C)CC2CCCCC2)[C@H](C)CN([C@H](C)CO)C(=O)c2cc(NC(=O)Nc3ccc4c(c3)OCO4)ccc2O1` as the molecule, how does the AC50 [3] read?
Answer: 4390 nM (active)

Question: And the AC50 [4]?
Answer: 16200 nM (active)

Question: For `COc1cccc(CN2C[C@@H]3N[C@H](C2)[C@@H]3c2ccc(-c3ccccc3OC)cc2)c1`, which AC50 [1] is on record?
Answer: 28500 nM (active)

Question: With `CCC1CN2CCc3cc(OC)c(OC)cc3C2CC1CC1NCCc2c1[nH]c1ccc(O)cc21` (centres undefined) as the molecule, how does the AC50 [5] read?
Answer: < 260 nM (active)

Question: And the AC50 [6]?
Answer: 209 nM (active)

Question: What about the AC50 [7] of the same molecule?
Answer: 75 nM (active)

Question: What about the AC50 [8] of the same molecule?
Answer: 219 nM (active)

Question: What about the CC50 [9] of the same molecule?
Answer: 1610 nM (active)

Question: And the AC50 [10]?
Answer: 601 nM (active)

Question: And the AC50 [11]?
Answer: 153 nM (active)

Question: What about the IC50 [12] of the same molecule?
Answer: 70200 nM (active)

Question: What about the AC50 [13] of the same molecule?
Answer: 658 nM (active)

Question: What about the AC50 [1] of the same molecule?
Answer: 471 nM (active)

Question: And the AC50 [14]?
Answer: < 260 nM (active)

Question: What about the IC50 [15] of the same molecule?
Answer: 49800 nM (inactive)

Question: And the AC50 [16]?
Answer: 18000 nM (active)
